In patent US8039668B2, “Naphthalene-based inhibitors of anti-apoptotic proteins” (Burnham Institute for Medical Research, priority 2008, dated 2011):
Where two headings read alike, the source gives them in different places. Values belong to the compound of their own block, whether it stands above or below them.

Legend:
[1] = biological target: BCL-XL (Homo sapiens, UniProt Q07817); assay: 1D 1H-NMR binding assay; set-up: key to 1D-^1H NMR: +++, Very Active; ++, Active; +, Mild; −, Weak; conditions: for 1D-^1H NMR: BCL-XL 25 μM, compound 200 μM; for 1D ^1H-NMR Binding Assay (BCL-XL): Table 9
Experimental: By observing the aliphatic region of the spectra, binding could be readily detected due to chemical shift changes in active site methyl groups of Ile, Leu, Thr, Val or Ala (region between −0.8 and 0.3 ppm). All experiments were performed with a 600 MHz spectrometer Bruker Avance 600 equipped with four rf channels and z-axis pulse-field gradients.

[2] = tested on: H1299 cell line; assay: Cell viability, ATP-LITE assay; format: cell-based, human; conditions: Homo sapiens
Experimental: (§1) The activity of the compounds against human cancer cell lines (PC3ML, H460, H1299, RS11846) were assessed by using the ATP-LITE assay (PerkinElmer). All cells were seeded in either F12 or RPMI1640 medium with 5 mM L-glutamine supplemented with 5% fetal bovine serum (Mediatech Inc.), penicillin and streptomycin (Omega). For maintenance, cells were cultured in 5% FBS. Cells plated into 96 well plates at varying initial densities depending on doubling time. H460 and H1299 plated at 2000 cells/well, A549 and PC3 at 3000 cells/well, and RS118456S at 10,000 cells/well. Compounds were diluted to final concentrations with 0.1% DMSO. Prior to dispensing compounds onto cells, fresh 5% media was placed into wells. Administration of compounds occurred 24 hours after seeding into the fresh media. Cell viability was evaluated using ATP-LITE reagent (PerkinElmer) after 72 hours of treatment. Data were normalized to the DMSO control-treated cells using Prism version 5.01 (Graphpad Software).

[3] = tested on: PC3ML cells; assay: Cell viability, ATP-LITE assay; format: cell-based, human; conditions: Homo sapiens, PC3-ML, ATP-LITE assay
Experimental: as §1

[4] = tested on: H460 human lung cell line; assay: Cell viability, ATP-LITE assay; format: cell-based; conditions: Homo sapiens
Experimental: as §1

[5] = tested on: human lymphoma RS11846 cell line; assay: Apoptosis, Annexin V-FITC and propidium iodide assay; format: cell-based; conditions: for EC50: Homo sapiens
[6] = tested on: B6Bcl-2 transgenic mice
Experimental: Transgenic mice expressing BCL-2 have been described as the B6 line. The BCL-2 transgene res a minigene version of a t(14;18) translocation in which the human BCL-2 gene is fused with the immunoglobulin heavy-chain (IgH) locus and associated IgH enhancer. The transgene was propagated on the Balb/c background.
After 24 hours, B6BCL2 mice were sacrificed by intraperitoneal injection of lethal dose of Avertin. Spleen was removed and weighed. […] Spleen tissue was fixed in z-FIX for 3 days and rinsed in PBS, and saved for histological analysis of spleen (H&E staining and TUNEL assay).

[7] = NCI-H1299, read-out: EC50 H1299
[8] = read-out: EC50 RS11846, Table 3, Annexin V-FITC and propidium iodide assay
[9] = NCI-H1299, heading: EC50 H1299, Table 3, ATP-LITE assay, read-out: EC50 H1299
[10] = Table 3, heading: EC50 PC3ML, read-out: EC50 PC3ML
[11] = NCI-H460, heading: EC50 H460, Table 3, ATP-LITE assay, read-out: EC50 H460
[12] = Table 3, Annexin V-FITC and propidium iodide assay, heading: EC50 RS11846, read-out: EC50 RS11846
[13] = NCI-H1299, ATP-LITE assay, read-out: EC50 H1299
[14] = NCI-H460, ATP-LITE assay, read-out: EC50 H460
[15] = Annexin V-FITC and propidium iodide assay, read-out: EC50 RS11846

Sequence of BCL-XL (Q07817 whole entry): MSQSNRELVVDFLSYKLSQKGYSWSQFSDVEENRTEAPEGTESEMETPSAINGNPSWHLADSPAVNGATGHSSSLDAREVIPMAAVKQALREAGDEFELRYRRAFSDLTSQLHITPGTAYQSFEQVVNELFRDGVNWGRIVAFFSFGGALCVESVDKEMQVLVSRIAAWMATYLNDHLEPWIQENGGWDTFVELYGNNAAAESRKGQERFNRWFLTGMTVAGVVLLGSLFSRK

Compound: Cc1cc2c(C(=O)NCc3ccccc3)c(O)c(O)cc2c(O)c1-c1c(C)cc2c(C(=O)NCc3ccccc3)c(O)c(O)cc2c1O [Compound 8g, N^5,N^5′-dibenzyl-1,1′,6,6′,7,7′-hexahydroxy-3,3′-dimethyl-2,2′-binaphthyl-5,5′-dicarboxamide]
1D-^1H NMR ([1]; Table 3): +
EC50 [2, 7]: 3.6 µM
EC50 ([3]; read-out: EC50 PC3ML, Table 3): 13.7 µM
EC50 ([4]; NCI-H460, read-out: EC50 H460): 4.6 µM
EC50 [5, 8]: 9.3 µM

Compound: Cc1cc2cc(O)c(O)cc2c(O)c1-c1c(C)cc2cc(O)c(O)cc2c1O [Compound 13, 3,3′-dimethyl-2,2′-binaphthyl-1,1′,6,6′,7,7′-hexaol]
1D-^1H NMR ([1]; Table 4): −
EC50 [2, 13]: 13.4 µM
EC50 ([3]; read-out: EC50 PC3ML): > 10 µM
EC50 [4, 14]: > 10 µM
EC50 [5, 15]: 24.5 µM
induction of apoptosis of the RS11846 cell line ([5]; in words): weak or no apoptosis
Tox ([6]; Bcl-2 transgenic mouse, single ip injection 72 μmol/kg): 0
activity in transgenic mice model ([6]; single ip 72 μmol/kg): no activity

Compound: CCC(C)C(=O)c1c(O)c(O)cc2c(O)c(-c3c(C)cc4c(C(=O)C(C)CC)c(O)c(O)cc4c3O)c(C)cc12 (centres unmarked) [Compound XIX, 1,1′-(1,1′,6,6′,7,7′-hexahydroxy-3,3′-dimethyl-2,2′-binaphthyl-5,5′-diyl)bis(2-methylbutan-1-one)]
1D ^1H-NMR Binding Assay (BCL-XL) [1]: +
EC50 ([5]; Table 9, read-out: RS11846 EC50 (Annexin V- and propidium iodide assay)): 17.1 µM

Compound: Cc1cc2c(CC(C)C)c(O)c(O)cc2c(O)c1-c1c(C)cc2c(CC(C)C)c(O)c(O)cc2c1O [Compound 12a, 5,5′-diisobutyl-3,3′-dimethyl-2,2′-binaphthyl-1,1′,6,6′,7,7′-hexaol]
1D-^1H NMR ([1]; Table 4): +

Compound: Cc1cc2c(C(=O)NC3CCCC3)c(O)c(O)cc2c(O)c1-c1c(C)cc2c(C(=O)NC3CCCC3)c(O)c(O)cc2c1O [Compound 8b, N^5,N^5′-dicyclopentyl-1,1′,6,6′,7,7′-hexahydroxy-3,3′-dimethyl-2,2′-binaphthyl-5,5′-dicarboxamide]
1D-^1H NMR ([1]; Table 3): +
EC50 [2, 9]: 8 µM
EC50 [3, 10]: 12.2 µM
EC50 [4, 11]: 8.5 µM
EC50 [5, 12]: 13.7 µM

Compound: Cc1cc2c(C(=O)Nc3ccc(Oc4ccccc4)cc3)c(O)c(O)cc2c(O)c1-c1c(C)cc2c(C(=O)Nc3ccc(Oc4ccccc4)cc3)c(O)c(O)cc2c1O [Compound 8c, 1,1′,6,6′,7,7′-hexahydroxy-3,3′-dimethyl-N^5,N^5′-bis(4-phenoxyphenyl)-2,2′-binaphthyl-5,5′-dicarboxamide]
1D-^1H NMR ([1]; Table 3): +
EC50 [2, 9]: 17 µM
EC50 [3, 10]: 8.5 µM
EC50 [4, 11]: 10.1 µM
EC50 [5, 12]: 10.8 µM

Compound: CCCCC(=O)c1c(O)c(O)cc2c(O)c(-c3c(C)cc4c(C(=O)CCCC)c(O)c(O)cc4c3O)c(C)cc12 [Compound XX, 1,1′-(1,1′,6,6′,7,7′-hexahydroxy-3,3′-dimethyl-2,2′-binaphthyl-5,5′-diyl)dipentan-1-one]
1D ^1H-NMR Binding Assay (BCL-XL) [1]: +
EC50 ([5]; read-out: RS11846 EC50 (Annexin V- and propidium iodide assay), Table 9): 11.7 µM

Compound: Cc1cc2c(C(=O)NCC3CC3)c(O)c(O)cc2c(O)c1-c1c(C)cc2c(C(=O)NCC3CC3)c(O)c(O)cc2c1O [Compound 8l, N^5,N^5′-bis(cyclopropylmethyl)-1,1′,6,6′,7,7′-hexahydroxy-3,3′-dimethyl-2,2′-binaphthyl-5,5′-dicarboxamide]
1D-^1H NMR ([1]; Table 3): +
EC50 [5, 12]: > 10 µM

Compound: Cc1cc2c(CCC(C)C)c(O)c(O)cc2c(O)c1-c1c(C)cc2c(CCC(C)C)c(O)c(O)cc2c1O [Compound 12b, 5,5′-diisopentyl-3,3′-dimethyl-2,2′-binaphthyl-1,1′,6,6′,7,7′-hexaol]
1D-^1H NMR ([1]; Table 4): +

Compound: Cc1cc2c(Cc3ccccc3)c(O)c(O)cc2c(O)c1-c1c(C)cc2c(Cc3ccccc3)c(O)c(O)cc2c1O [Compound 12d, 5,5′-dibenzyl-3,3′-dimethyl-2,2′-binaphthyl-1,1′,6,6′,7,7′-hexaol]
1D-^1H NMR ([1]; Table 4): +
EC50 [2, 13]: 1.28 µM
EC50 ([3]; read-out: EC50 PC3ML): 8.3 µM
EC50 [4, 14]: 1.2 µM
EC50 [5, 15]: 3.2 µM

Compound: Cc1cc2c(C(=O)NCc3cccc(Cl)c3)c(O)c(O)cc2c(O)c1-c1c(C)cc2c(C(=O)NCc3cccc(Cl)c3)c(O)c(O)cc2c1O [Compound 8i, N^5,N^5′-bis(3-chlorobenzyl)-1,1′,6,6′,7,7′-hexahydroxy-3,3′-dimethyl-2,2′-binaphthyl-5,5′-dicarboxamide]
1D-^1H NMR ([1]; Table 3): +++
EC50 [2, 7]: 5.2 µM
EC50 ([3]; read-out: EC50 PC3ML, Table 3): 8.3 µM
EC50 ([4]; NCI-H460, read-out: EC50 H460): 3.3 µM
EC50 [5, 8]: 7.3 µM

Next, values leading:

1D-^1H NMR ([1]; Table 3): +
EC50 [2, 9]: 28.7 µM
EC50 [3, 10]: 12.2 µM
EC50 [4, 11]: 16.7 µM
EC50 [5, 12]: 12.6 µM
Compound: Cc1cc2c(C(=O)Nc3cccc(C(F)(F)F)c3)c(O)c(O)cc2c(O)c1-c1c(C)cc2c(C(=O)Nc3cccc(C(F)(F)F)c3)c(O)c(O)cc2c1O [Compound 8e, 1,1′,6,6′,7,7′-hexahydroxy-3,3′-dimethyl-N^5,N^5′-bis(3-(trifluoromethyl)phenyl)-2,2′-binaphthyl-5,5′-dicarboxamide]

1D-^1H NMR ([1]; Table 3): +
EC50 [2, 9]: 8 µM
EC50 ([4]; NCI-H460, Table 3, ATP-LITE assay, heading: EC50 H460, read-out: EC50 H460): 3.5 µM
Compound: Cc1cc2c(C(=O)Nc3ccccc3)c(O)c(O)cc2c(O)c1-c1c(C)cc2c(C(=O)Nc3ccccc3)c(O)c(O)cc2c1O [Compound 8a, 1,1′,6,6′,7,7′-hexahydroxy-3,3′-dimethyl-N^5,N^5′-diphenyl-2,2′-binaphthyl-5,5′-dicarboxamide]

1D-^1H NMR ([1]; Table 3): +++
EC50 [2, 9]: 3.1 µM
EC50 ([3]; Table 3, read-out: EC50 PC3ML): 10.2 µM
EC50 [4, 11]: 2.9 µM
EC50 [5, 12]: 4.8 µM
Compound: Cc1cccc(CNC(=O)c2c(O)c(O)cc3c(O)c(-c4c(C)cc5c(C(=O)NCc6cccc(C)c6)c(O)c(O)cc5c4O)c(C)cc23)c1 [Compound 8h, 1,1′,6,6′,7,7′-hexahydroxy-3,3′-dimethyl-N^5,N^5′-bis(3-methylbenzyl)-2,2′-binaphthyl-5,5′-dicarboxamide]

1D-^1H NMR ([1]; Table 3): +
EC50 ([4]; NCI-H460, Table 3, ATP-LITE assay, read-out: EC50 H460): 0.7 µM
EC50 [5, 12]: 5.6 µM
Compound: Cc1cccc(CCNC(=O)c2c(O)c(O)cc3c(O)c(-c4c(C)cc5c(C(=O)NCCc6cccc(C)c6)c(O)c(O)cc5c4O)c(C)cc23)c1 [Compound 8o, 1,1′,6,6′, 7,7′-hexahydroxy-3,3′-dimethyl-N^5,N^5′-bis(3-methylphenethyl)-2,2′-binaphthyl-5,5′-dicarboxamide]

1D-^1H NMR ([1]; Table 3): +
EC50 [2, 9]: 5 µM
EC50 [3, 10]: 8.3 µM
EC50 [4, 11]: 4.1 µM
EC50 [5, 12]: 4.7 µM
Compound: CCc1cccc(NC(=O)c2c(O)c(O)cc3c(O)c(-c4c(C)cc5c(C(=O)Nc6cccc(CC)c6)c(O)c(O)cc5c4O)c(C)cc23)c1 [Compound 8d, N^5,N^5′-bis(3-ethylphenyl)-1,1′,6,6′,7,7′-hexahydroxy-3,3′-dimethyl-2,2′-binaphthyl-5,5′-dicarboxamide]

1D-^1H NMR ([1]; Table 3): +++
EC50 [4, 11]: 1.5 µM
EC50 [5, 12]: 4.2 µM
Compound: CCC(NC(=O)c1c(O)c(O)cc2c(O)c(-c3c(C)cc4c(C(=O)NC(CC)c5ccccc5)c(O)c(O)cc4c3O)c(C)cc12)c1ccccc1 (centres unmarked) [Compound 8f, 1,1′,6,6′,7,7′-hexahydroxy-3,3′-dimethyl-N^5,N^5′-bis(1-phenylpropyl)-2,2′-binaphthyl-5,5′-dicarboxamide]
